The supplement of paper PMC10307832

Columns and labels:
Test in all cases: relative viability (nuclei count vs DMSO), 5 days (fraction); higher = more cells survive
Alisertib = compound: COc1cc(Nc2ncc3c(n2)-c2ccc(Cl)cc2C(c2c(F)cccc2OC)=NC3)ccc1C(=O)O [Alisertib]
In short: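 Nuclei counted with MetaXpress define viability as the ratio of treated to vehicle wells, given as a median across plates. The lung cancer cell lines were in 1536-well plates, pinned with five √10-spaced library-drug doses and imaged at 4× after 5 days and Hoechst staining. Plates passed with control CV below 25% and at least one doubling.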

Alisertib + Palbociclib = compound: COc1cc(Nc2ncc3c(n2)-c2ccc(Cl)cc2C(c2c(F)cccc2OC)=NC3)ccc1C(=O)O [Alisertib] + CC(=O)c1c(C)c2cnc(Nc3ccc(N4CCNCC4)cn3)nc2n(C2CCCC2)c1=O [Palbociclib] (partner 0.5 µM)
In short: (§1)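 Values are medians from duplicate plates. Each reflects relative viability, defined as the nuclei count of treated wells over that of vehicle wells. Lung cancer cell lines in 1536-well plates were pin-tool dosed one day after seeding with one drug alone or with a fixed anchor-drug dose plus five library-drug doses (not always all listed) in √10 steps, then fixed, stained and imaged at 4× after 5 days.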

Alisertib + Foretinib = compound: COc1cc(Nc2ncc3c(n2)-c2ccc(Cl)cc2C(c2c(F)cccc2OC)=NC3)ccc1C(=O)O [Alisertib] + COc1cc2c(Oc3ccc(NC(=O)C4(C(=O)Nc5ccc(F)cc5)CC4)cc3F)ccnc2cc1OCCCN1CCOCC1 [Foretinib] (partner 0.25 µM)
In short: as §1

Alisertib + OSI-027 = compound: COc1cc(Nc2ncc3c(n2)-c2ccc(Cl)cc2C(c2c(F)cccc2OC)=NC3)ccc1C(=O)O [Alisertib] + COc1cccc2cc(-c3nc([C@H]4CC[C@H](C(=O)O)CC4)n4ncnc(N)c34)[nH]c12 [OSI-027] (partner 0.5 µM)
In short: as §1

Cell Line	relative viability (Alisertib; 0.005 µM)	relative viability (Alisertib; 0.01581 µM)	relative viability (Alisertib; 0.05 µM)	relative viability (Alisertib; 0.1581 µM)	relative viability (Alisertib; 0.5 µM)	relative viability (Alisertib + Palbociclib; first compound 0.005 µM)	relative viability (Alisertib + Palbociclib; first compound 0.01581 µM)	relative viability (Alisertib + Palbociclib; first compound 0.05 µM)	relative viability (Alisertib + Palbociclib; first compound 0.1581 µM)	relative viability (Alisertib + Palbociclib; first compound 0.5 µM)	relative viability (Alisertib + Foretinib; first compound 0.005 µM)	relative viability (Alisertib + Foretinib; first compound 0.01581 µM)	relative viability (Alisertib + Foretinib; first compound 0.05 µM)	relative viability (Alisertib + Foretinib; first compound 0.1581 µM)	relative viability (Alisertib + Foretinib; first compound 0.5 µM)	relative viability (Alisertib + OSI-027; first compound 0.005 µM)	relative viability (Alisertib + OSI-027; first compound 0.01581 µM)	relative viability (Alisertib + OSI-027; first compound 0.05 µM)	relative viability (Alisertib + OSI-027; first compound 0.1581 µM)	relative viability (Alisertib + OSI-027; first compound 0.5 µM)
NCI-H1651	0.859	0.892	0.571	0.298	0.209	0.476	0.486	0.333	0.21	0.189	0.907	0.571	0.445	0.338	0.195	0.621	0.609	0.417	0.288	0.203
NCI-H1666	0.904	0.814	0.689	0.534	0.438	0.609	0.585	0.595	0.551	0.489	0.841	0.82	0.597	0.415	0.403	0.7	0.7	0.592	0.494	0.367
NCI-H1734	0.802	0.731	0.417	0.299	0.193	0.397	0.325	0.296	0.245	0.188	0.841	0.731	0.314	0.327	0.174	0.562	0.436	0.296	0.277	0.18
NCI-H1755	0.939	0.963	0.805	0.386	0.36	0.408	0.432	0.445	0.428	0.384	0.85	0.846	0.615	0.532	0.325	0.638	0.645	0.541	0.341	0.27
NCI-H1793	0.745	0.473	0.411	0.264	0.233	0.332	0.3	0.273	0.215	0.234	0.715	0.286	0.232	0.194	0.138	0.257	0.149	0.213	0.193	0.149
NCI-H1915	0.816	0.773	0.572	0.383	0.25	0.497	0.455	0.29	0.234	0.151	0.998	0.907	0.431	0.463	0.236	0.507	0.473	0.374	0.278	0.238
NCI-H1944	0.923	1.08	0.789	0.39	0.273	0.33	0.357	0.27	0.187	0.159	0.845	0.818	0.633	0.386	0.227	0.375	0.454	0.393	0.196	0.175
NCI-H1975	0.85	0.828	0.565	0.317	0.207	0.454	0.547	0.299	0.259	0.168	0.816	0.989	0.501	0.204	0.165	0.582	0.715	0.431	0.192	0.143
NCI-H1993	0.906	0.92	0.621	0.468	0.516	0.583	0.672	0.529	0.402	0.35	0.772	0.849	0.525	0.484	0.557	0.55	0.46	0.435	0.547	0.512
NCI-H2009	0.926	0.97	0.513	0.303	0.254	0.171	0.199	0.117	0.124	0.123	1.19	1.05	0.618	0.429	0.248	0.497	0.587	0.334	0.233	0.152
NCI-H2023	0.838	0.727	0.566	0.227	0.109	0.349	0.288	0.174	0.125	0.0948	0.936	0.743	0.501	0.46	0.0916	0.333	0.324	0.317	0.162	0.0743
NCI-H2085	0.936	0.955	0.572	0.327	0.385	0.505	0.469	0.344	0.346	0.336	1.03	0.812	0.309	0.259	0.228	0.591	0.746	0.469	0.222	0.235
NCI-H2087	0.941	0.807	0.312	0.176	0.201	0.226	0.271	0.154	0.11	0.109	1.12	0.856	0.176	0.172	0.119	0.542	0.521	0.204	0.111	0.098
NCI-H2126	0.938	0.941	0.699	0.361	0.314	0.314	0.378	0.346	0.304	0.269	1.08	1.02	0.455	0.294	0.382	0.721	0.696	0.588	0.318	0.36
NCI-H2170	0.94	0.883	0.815	0.423	0.323	0.366	0.365	0.243	0.22	0.155	0.715	0.972	0.605	0.563	0.181	0.721	0.629	0.644	0.323	0.201
NCI-H2228	0.778	0.85	0.531	0.158	0.189	0.641	0.689	0.378	0.118	0.125	0.734	0.642	0.493	0.0956	0.114	0.589	0.466	0.27	0.0993	0.115
